Data on six compounds can be found in patent publication US20090156645A1, “Method for Increasing the Susceptibility of Peptide Deformylase Inhibitors by Using Efflux Pump Inhibitors” (priority 2004, published 2009).

Test [1] relates to H. influenzae NB65044-CDS0011. Briefly: Potentiation of antibiotic MIC by efflux inhibitor (two-axis 96-well plates). The conditions noted are these: H. influenzae overexpressing AcrAB; data not shown. Format: cell-based, Haemophilus influenzae. Here is the method: H. influenzae NB65044-CDS0011 is used for H. influenzae testing. This strain has increased pump expression which is thought to result in more sensitive detection of pump inhibition.
H. influenzae: MIC determinations are conducted in 96 well sterile plates with a range of LBM415 along one axis and range of efflux inhibitor along the other axis. Medium used is HTM (Remel). Inoculum is set to approximately […] bacteria per well using the BBL prompt system.

The next test deals with H. influenzae. Briefly: microbe, parasite or virus in culture. Format: cell-based, Haemophilus influenzae. The conditions noted are these: for effect of insertional inactivation of acrB on susceptibility: laboratory strain NB65044; for effect of inactivation of HI1462 on susceptibility: H. influenzae NB65044; for MIC: Haemophilus influenzae. Here is the method: L-broth or L-agar (Difco) is used for routine growth of Escherichia coli (E. coli). Chocolate agar plates (Remel) are used for routine growth of H. influenzae. Brain heart infusion broth (Remel) supplemented with 10 μg/mL of β-NAD (Fluka) and 10 μg/mL hemin/vitamin K solution (sBHI) (Remel) is used for liquid broth cultivation of H. influenzae. For induction of natural competence in H. influenzae, nutritional downshift is induced using M-IV medium as described previously. See Poje and Redfield, Methods Mol Med, Vol. 71, No., pp. 57-70 (2003). Kanamycin is added to growth media at 50 μg/mL (E. coli) or 5 μg/mL (H. influenzae) as required.
Antibiotic and substrate MICs are determined by broth microdilution using 2-fold dilution in HTM in accordance with the procedures established by the National Committee for Clinical Laboratory Standards (NCCLS). See NCCLS, Approved standard M7-A5, Wayne, Pa. (2003). PDF inhibitors are synthesized at the Novartis Institutes for BioMedical Research, Cambridge, Mass. All remaining antibiotics are obtained from Sigma (St. Louis, Mo.).

In test [2] the test system is E. coli strain NB27006 complemented with H. influenzae acrAB genes. Briefly: Potentiation of antibiotic MIC by efflux inhibitor in E. coli carrying the H. influenzae acrAB genes. The conditions noted are these: E. coli complemented in trans with H. influenzae acrAB genes. Format: cell-based, Escherichia coli. Here is the method:
(§1) For E. coli testing, strain NB27006 is used. This strain is deficient in its native AcrAB pump (described in H Okusu et al. J. Bacteriol. 1996 178: 306-308) and is a suitable host for cloning the H. influenzae acrAB pump genes.
(§2) E. coli: MIC determines are conducted as described above except using Mueller-Hinton test medium.
Genes encoding H. influenzae AcrAB pump components are PCR amplified from NB65044 genomic DNA using the primers acrA prom F1 (5′-AATTA[…]-3′) (SEQ ID NO. 11) and acrBR3 […] 5′-[…]-3″) (SEQ ID NO. 12). The acrAB containing product is cloned into Topo PCR2.1 (Invitrogen) and transformed into Top10 competent cells (Invitrogen). An insert bearing plasmid is isolated and sequenced to ensure that mutations are not introduced during PCR and cloning. This plasmid is then transformed into E. coli strain NB27006, which lacks its native AcrAB-ToIC pump function.
Since efflux pumps are impacted by such factors as outer membrane permeability, and E. coli is thought to have a less permeable outer membrane than H. influenzae (possibly accounting for increased impact of efflux on drug resistance), it has reasoned that the detection of H. influenzae AcrAB pump inhibition might be more sensitive in an E. coli background. […] This is interesting in that the native E. coli AcrAB-ToIC pump does extrude tetracycline.

Another test has as its system E. coli. Briefly: MIC of LBM415 in E. coli with or without AcrAB-TolC pump function. Format: cell-based. The conditions noted are these: Escherichia coli. Here is the method:
as §1, §2
12). The acrAB containing product is cloned into Topo PCR2.1 (Invitrogen) and transformed into Top10 competent cells (Invitrogen). An insert bearing plasmid is isolated and sequenced to ensure that mutations are not introduced during PCR and cloning. This plasmid is then transformed into E. coli strain NB27006, which lacks its native AcrAB-ToIC pump function.
To further examine this, the H. influenzae acrAB genes are cloned and used to complement, in trans, an AcrAB pump deficiency in E. coli strain NB27006.

Where [3] appears, read: strain NB65016 (clinical isolate), read-out: MIC.
Where [4] appears, read: strain NB65016-CDS0004, knockout acrB.
The mark [5] stands for this setting: strain NB65027 (clinical isolate), read-out: MIC.
Where [6] appears, read: strain NB65027-CDS0003, knockout HI1462.
Where [7] appears, read: strain NB65027-CDS0021, knockout acrB.
Setting [8] is: strain NB65044 (Rd KW20, parent laboratory strain), read-out: MIC.
The mark [9] stands for this setting: strain NB65044-CDS0001 (NB65044 acrB::Km).
[10] abbreviates: strain NB65044-CDS0020 (Table 1: NB65044 acrB::Km).
[11] abbreviates: strain NB65051 (clinical isolate), read-out: MIC.
The mark [12] stands for this setting: strain NB65051-CDS0002, knockout acrB.
The mark [13] stands for this setting: strain NB65051-CDS0022, knockout HI1462.
Where [14] appears, read: strain NB65063 (clinical isolate), read-out: MIC.
Setting [15] is: strain NB65063-CDS0005, knockout acrB.
Setting [16] is: strain NB65069 (clinical isolate), read-out: MIC.
Where [17] appears, read: strain NB65069-CDS0007, knockout acrB.
The mark [18] stands for this setting: strain NB65076 (clinical isolate), read-out: MIC.
[19] abbreviates: strain NB65076-CDS0006, knockout acrB.

Values after ≈ are worked out from the molar mass of the structure shown. Read-outs that look alike come from different tables or passages of the source. Where a SMILES comes first, the peptide text is derived from it. The star is where a group is joined. βNA = c1ccc2cc(N*)ccc2c1

As to `COC(=O)[C@H]1[C@H]2C[C@@H]3c4[nH]c5cc(OC)ccc5c4CCN3C[C@H]2C[C@@H](OC(=O)c2cc(OC)c(OC)c(OC)c2)[C@@H]1OC` [Reserpine], in test [1], the “potentiation of LBM415 activity” value is “did not potentiate” and the potentiation of clindamycin entry is “did not potentiate”.
In the case of `O=C(N[C@H](CO)[C@H](O)c1ccc([N+](=O)[O-])cc1)C(Cl)Cl` [chloramphenicol], in the test with H. influenzae, the “effect of insertional inactivation of acrB on susceptibility” value (“effect … of acrB on susceptibility” for short) was “unaffected”.
Take `CC[C@H]1OC(=O)[C@H](C)[C@@H](O[C@H]2C[C@@](C)(OC)[C@@H](O)[C@H](C)O2)[C@H](C)[C@@H](O[C@@H]2O[C@H](C)C[C@H](N(C)C)[C@H]2O)[C@](C)(O)C[C@@H](C)C(=O)[C@H](C)[C@@H](O)[C@]1(C)O` [ERM, erythromycin]: the “effect of inactivation of HI1462 on susceptibility” value with H. influenzae is on record as “increases susceptibility”. Moreover, the MIC came out at 16 µg/mL (≈ 21.8 µM) in the test on H. influenzae (setting [3]); 0.25 µg/mL (≈ 0.341 µM) in the test on H. influenzae (setting [4]); 16 µg/mL (≈ 21.8 µM) with H. influenzae (setting [5]); 0.125 µg/mL (≈ 0.17 µM) against H. influenzae (setting [6]); 0.25 µg/mL (≈ 0.341 µM) in the test with H. influenzae (setting [7]); 4 µg/mL (≈ 5.45 µM) in the test on H. influenzae (setting [8]). For the same compound, the MIC against H. influenzae (setting [9]) was 0.25 µg/mL (≈ 0.341 µM); against H. influenzae (setting [10]) it was 0.25 µg/mL (≈ 0.341 µM); in the test on H. influenzae (setting [11]), 16 µg/mL (≈ 21.8 µM); against H. influenzae (setting [12]), 0.25 µg/mL (≈ 0.341 µM); with H. influenzae (setting [13]) it was 0.125 µg/mL (≈ 0.17 µM); with H. influenzae (setting [14]), 8 µg/mL (≈ 10.9 µM). In addition, the MIC against H. influenzae (setting [15]) stood at 0.25 µg/mL (≈ 0.341 µM); in the test with H. influenzae (setting [16]), 16 µg/mL (≈ 21.8 µM); against H. influenzae (setting [17]) it was 0.125 µg/mL (≈ 0.17 µM); in the test with H. influenzae (setting [18]), 16 µg/mL (≈ 21.8 µM); in the test on H. influenzae (setting [19]) it was 0.125 µg/mL (≈ 0.17 µM). Further, the “effect … of acrB on susceptibility” value with H. influenzae is given as “increases susceptibility”.
In the case of `CN(C)[C@@H]1C(O)=C(C(N)=O)C(=O)[C@@]2(O)C(O)=C3C(=O)c4c(O)cccc4[C@@](C)(O)[C@H]3C[C@@H]12` [TET, tetracycline], the MIC against H. influenzae (setting [4]) was 1 µg/mL (≈ 2.25 µM); with H. influenzae (setting [6]) it was 1 µg/mL (≈ 2.25 µM); against H. influenzae (setting [7]), 0.5 µg/mL (≈ 1.13 µM); against H. influenzae (setting [9]) it was 0.5 µg/mL (≈ 1.13 µM); in the test on H. influenzae (strain NB65044-CDS0008, knockout acrR), 0.5 µg/mL (≈ 1.13 µM); against H. influenzae (strain NB65044-CDS0011 (acrR mutant selected on 8 μg/mL LBM415, stop codon)), 1 µg/mL (≈ 2.25 µM). Besides, the MIC against H. influenzae (strain NB65044-CDS0014 (acrR mutant selected on 8 μg/mL LBM415, L→P)) was 1 µg/mL (≈ 2.25 µM); in the test with H. influenzae (setting [10]), 1 µg/mL (≈ 2.25 µM); against H. influenzae (setting [12]) it was 1 µg/mL (≈ 2.25 µM); with H. influenzae (setting [13]), 1 µg/mL (≈ 2.25 µM); with H. influenzae (setting [15]) it was 1 µg/mL (≈ 2.25 µM); in the test with H. influenzae (setting [17]) it was 1 µg/mL (≈ 2.25 µM). This compound showed an MIC against H. influenzae (setting [19]) of 1 µg/mL (≈ 2.25 µM).
For `N=C(N)NCCC[C@H](NC(=O)[C@@H](N)Cc1ccccc1)C(=O)Nc1ccc2ccccc2c1` [MC-207,110] (H-Phe-Arg-βNA), in test [2], the “potentiation of LBM415” value is given as “potentiating activity”, the potentiation of clindamycin result is given as “potentiating activity” and the potentiation of tetracycline result is “no potentiation”. Besides, in test [1], the “potentiation of LBM415 activity” value is “potentiation”, the potentiation of clindamycin entry is on record as “potentiate” and the “potentiation of tetracycline (pump non-substrate)” value is reported as “no potentiation”.
On to `CCCC[C@H](CN(O)C=O)C(=O)N1CCC[C@H]1C(=O)Nc1ccc(F)c[n+]1[O-]` [LBM415], for which the “effect of inactivation of HI1462 on susceptibility” value in the test on H. influenzae is reported as “increases susceptibility”. For the same compound, the MIC was 16 µg/mL (≈ 40.4 µM) in the test on H. influenzae (setting [3]); 0.25 µg/mL (≈ 0.631 µM) against H. influenzae (setting [4]); 32 µg/mL (≈ 80.7 µM) in the test on H. influenzae (setting [5]); 0.5 µg/mL (≈ 1.26 µM) in the test with H. influenzae (setting [6]); 0.5 µg/mL (≈ 1.26 µM) in the test on H. influenzae (setting [7]); 4 µg/mL (≈ 10.1 µM) in the test with H. influenzae (setting [8]). Moreover, the MIC was 0.25 µg/mL (≈ 0.631 µM) with H. influenzae (setting [9]); 0.125 µg/mL (≈ 0.315 µM) in the test with H. influenzae (setting [10]); 32 µg/mL (≈ 80.7 µM) in the test with H. influenzae (setting [11]); 0.25 µg/mL (≈ 0.631 µM) with H. influenzae (setting [12]); 0.25 µg/mL (≈ 0.631 µM) in the test with H. influenzae (setting [13]); not above 0.25 µg/mL in the test on H. influenzae (strain NB65062 (clinical isolate, hyper-susceptible, acrA deletion), read-out: MIC). Moreover, the MIC with H. influenzae (strain NB65062-CDS0037 (NB65062 complemented for acrA deficiency), read-out: MIC) worked out at 8 µg/mL (≈ 20.2 µM); in the test on H. influenzae (strain NB65062-CDS0038 (NB65062 complemented for acrA deficiency), read-out: MIC), 8 µg/mL (≈ 20.2 µM); with H. influenzae (setting [14]), 32 µg/mL (≈ 80.7 µM); with H. influenzae (setting [15]), 1 µg/mL (≈ 2.52 µM); in the test with H. influenzae (setting [16]), 16 µg/mL (≈ 40.4 µM); in the test on H. influenzae (setting [17]), 0.25 µg/mL (≈ 0.631 µM). Besides, the MIC was 16 µg/mL (≈ 40.4 µM) with H. influenzae (setting [18]); 0.25 µg/mL (≈ 0.631 µM) against H. influenzae (setting [19]); 32 µg/mL in the test on E. coli (E. coli strain NB27006 complemented with the H. influenzae acrAB genes); approximately 1 µg/mL with E. coli (E. coli strains deficient in AcrAB-ToIC pump function, typical value); not below 128 µg/mL with E. coli (E. coli with native AcrAB-ToIC pump, typical value). The decrease in susceptibility with H. influenzae (acrR insertionally inactivated in NB65044 (NB65044-CDS0008) versus parent) came out at 2 fold; in the test on H. influenzae (two acrR mutants of NB65044 selected on 8 μg/mL LBM415 versus parent), 8 fold. Besides, the “effect … of acrB on susceptibility” value in the test on H. influenzae is recorded as “significantly increases susceptibility”.
